Test results as given in patent US12043601B2, “N-substituted-1H-1,2,4-triazole-3-carboxamides, analogues thereof, and methods of treatment using same” (THE REGENTS OF THE UNIVERSITY OF COLORADO, priority 2018, dated 2024).
≈ marks a conversion by molar mass, not a printed value. Where “and” joins values, the source holds several entries; their conditions need not be identical. Equal entries are not always repeated. Entries after “also recorded” stand apart in the source; their conditions may differ. Where two headings read alike, the source gives them in different places.

Tests used:
[1] = system: Salmonella strain 14028s; assay: Minimum inhibitory concentration in EG minimal media; format: cell-based, Salmonella Typhimurium
Method: (§1) DksA controls transcription of metabolic and virulence genes, allowing bacteria to both grow in minimum media and cause disease. Inhibition of bacterial growth in EG minimum media was used as an easy and reliable proxy of the DksA-dependent regulation of metabolism.
In a non-limiting example, wild-type Salmonella strain 14028s was grown overnight (18.5 h), and then diluted in EG minimal media to a density of about 10^5 CFU/mL. […] Each test tube was incubated at 37° C. with shaking for 18 h and bacterial growth was evaluated. The MIC value was determined as the lowest concentration of compound that inhibited growth.

[2] = biological target: T1, DksA (Salmonella typhimurium, UniProt P0A1G5); assay: DksA-mediated repression of rpsM in vitro transcription (IVT, qRT-PCR); format: biochemical
Method: (§2) To measure the potency of a compound in inhibition of DksA biological function, rpsMtranscripts in vitro was determined by non-radioactive in vitro transcription reactions with qPCR analysis with divergent compounds. Briefly, 5 nM pTIM-rpsMplasmid was mixed with 0.1-100 nM of compounds in 10 μl reaction buffer (40 mM HEPES [pH 7.4], 2 mM MgCl2, 60 mM potassium glutamate, 0.05% NP-40, 200 μM ATP, 200 μM GTP, 200 μM CTP, 200 μM UTP, and 5 nM E. coli RNA polymerase holoenzyme (NEB, Ipswich, MA) with 5 μM DksA. The in vitro transcription was carried out at 37° C. for 10 min, and then terminated at 70° C. for 10 min. To remove template DNA after treated with DNaseI, DNA-free DNA Removal kit (ThermoFisher) was used according to manufacturer's direction. The resulting materials were used as templates to generate cDNA with 100 U MMLV reverse transcriptase (Promega), 0.45 μM gene specific primer, and 20 U RNase inhibitor (Promega). The amount of cDNA synthesized for 1 h at 42° C. was quantified by real-time PCR (qRT-PCR). The copy number of specific transcripts was calculated to the standard curve generated with known gene copy concentrations. The IC50 is the concentration at which the curve passes through the 50% inhibition level. Standard deviation was calculated from 3 independent experiments.
The compounds obtained in this screen were further analyzed for binding to the acidic pocket at the tip of DksA coiled-coil domain using the computer search program Dock. The analysis identified over 400 compounds. A panel of 40 compounds was selected from the top hits based on free energy binding scores. These compounds were investigated using the computer modeling program O. Two additional criteria were applied in order to narrow down the list of candidates: First, the compounds needed to fit deep into the pocket without any clashes; and second, the compounds bound to DksA should have minimal exposed moieties. The compounds selected were further refined according to energy minimization as calculated by the CNS program. 23 compounds were obtained from MolPort and they were tested for their ability to interfere with DksA in a high throughput screen that combined in vitro transcription with highly specific and quantitative qRT-PCR. Five of these compounds, including N-(3,4-dimethoxyphenyl)-1H-1,2,4-triazole-3-carboxamide (1), prevented DksA-mediated repression of rpsM in vitro transcription to some degree. […] Without intending to be limited to any particular theory, the effect that 1 has on DksA-dependent rpsM or hisG gene transcription is potentially due to differences in promoter activity.
(§3) The compounds were initially tested at 0.1 μM and 1 μM using as a target the promoter of the livJ gene that encodes a transporter of branch-chain amino acids (Table 4).

[3] = biological target: T1, DksA; assay: DksA-dependent livJ in vitro transcription; format: biochemical; conditions: livJ promoter; for IVT: concentration showing activity
Method: as §2, §3

[4] = Compound solubility; format: physicochemical; conditions: for Compound Solubility, 1 μM: solvent at 1 μM; for Compound Solubility, 10 μM: solvent at 10 μM; for Compound Solubility, 100 μM: solvent at 100 μM; for Compound Solubility, 1 mM: solvent at 1 mM; for Compound Solubility, 10 mM: solvent at 10 mM; for Compound Solubility, 16 mg/ml: solvent at 16 mg/ml
[5] = system: T2, E. coli RNA polymerase holoenzyme; assay: rpsM in vitro transcription by RNA polymerase itself; format: biochemical; conditions: up to 10 μM
T2 construct: purchased NEB, Ipswich, MA
Method: as §2, with “Briefly, 5 nM pTIM-rpsMplasmid was mixed with 0.1-100 nM of compounds in 10 μl reaction buffer (40 mM HEPES [pH 7.4], 2 mM MgCl2, 60 mM potassium glutamate, 0.05% NP-40, 200 μM ATP, 200 μM GTP, 200 μM CTP, 200 μM UTP, and 5 nM E. coli RNA polymerase holoenzyme (NEB, Ipswich, MA) with 5 μM DksA.” left out
The compounds obtained in this screen were further analyzed for binding to the acidic pocket at the tip of DksA coiled-coil domain using the computer search program Dock. The analysis identified over 400 compounds. […] The compounds selected were further refined according to energy minimization as calculated by the CNS program. […]

[6] = system: J774 cells; assay: Lactate dehydrogenase (LDH) release from infected host cells; format: cell-based; conditions: 32 μg/ml; 18 h after infection with wild-type or ΔdksA Salmonella; p=0.3
[7] = biological target: T1, DksA; assay: DksA-dependent activation of hisG in vitro transcription; format: biochemical; conditions: as little as 0.1 μM
Method: To measure the potency of a compound in inhibition of DksA biological function, rpsMtranscripts in vitro was determined by non-radioactive in vitro transcription reactions with qPCR analysis with divergent compounds. […] The amount of cDNA synthesized for 1 h at 42° C. was quantified by real-time PCR (qRT-PCR). The copy number of specific transcripts was calculated to the standard curve generated with known gene copy concentrations. […] Standard deviation was calculated from 3 independent experiments.
The compounds obtained in this screen were further analyzed for binding to the acidic pocket at the tip of DksA coiled-coil domain using the computer search program Dock. […] The compounds selected were further refined according to energy minimization as calculated by the CNS program. 23 compounds were obtained from MolPort and they were tested for their ability to interfere with DksA in a high throughput screen that combined in vitro transcription with highly specific and quantitative qRT-PCR. […]

[8] = system: SPI2 effector sifA; assay: Intracellular expression of SPI2 effector sifA in infected macrophages; format: cell-based; conditions: Salmonella-infected macrophages, 16 μg/ml
[9] = system: intracellular Salmonella in J774 macrophage-like cells; assay: Intracellular growth of Salmonella in macrophages; format: cell-based; conditions: for Antimicrobial activity against intracellular Salmonella growing in macrophages: J774 cells, cell culture media containing 10% fetal bovine serum
[10] = system: Salmonella; assay: Disk diffusion assay; format: cell-based; conditions: among drugs that inhibited DksA function in the in vitro screens
Method: Salmonella was grown overnight in LB broth at 37° C. with shaking. The bacterial cultures were diluted by 1:1000 with PBS. 100 μl of the diluted samples were transferred into E-salts glucose agar. The bacteria were spread on the surface of the agar. Two discs (BBL blank paper discs 6 mm) were placed per/plate, and 10 μl of 10 mM or 100 mM stock compound were added to the discs. The plates were incubated at 37° C. overnight. The diameter of inhibition was expressed in mm.

[11] = system: E. coli strain 3110; assay: Minimum inhibitory concentration in EG minimum media, E. coli; format: cell-based; conditions: Escherichia coli
Excerpt: as §1

T1 sequence (P0A1G5 whole entry): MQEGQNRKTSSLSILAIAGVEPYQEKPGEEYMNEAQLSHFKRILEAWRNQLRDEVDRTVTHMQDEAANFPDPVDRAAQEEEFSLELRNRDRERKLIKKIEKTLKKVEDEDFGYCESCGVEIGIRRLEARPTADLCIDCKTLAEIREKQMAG
T2 sequence (P0A7Z4 whole entry): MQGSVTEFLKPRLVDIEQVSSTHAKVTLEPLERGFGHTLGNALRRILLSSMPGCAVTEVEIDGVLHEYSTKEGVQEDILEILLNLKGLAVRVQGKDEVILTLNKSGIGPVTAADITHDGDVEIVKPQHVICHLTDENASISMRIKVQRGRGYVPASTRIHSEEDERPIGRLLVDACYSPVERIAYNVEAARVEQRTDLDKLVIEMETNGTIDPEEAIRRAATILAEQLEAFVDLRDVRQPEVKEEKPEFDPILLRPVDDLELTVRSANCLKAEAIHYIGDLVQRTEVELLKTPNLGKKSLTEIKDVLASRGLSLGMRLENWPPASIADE
T2 sequence (P0A8V2 whole entry, further chain): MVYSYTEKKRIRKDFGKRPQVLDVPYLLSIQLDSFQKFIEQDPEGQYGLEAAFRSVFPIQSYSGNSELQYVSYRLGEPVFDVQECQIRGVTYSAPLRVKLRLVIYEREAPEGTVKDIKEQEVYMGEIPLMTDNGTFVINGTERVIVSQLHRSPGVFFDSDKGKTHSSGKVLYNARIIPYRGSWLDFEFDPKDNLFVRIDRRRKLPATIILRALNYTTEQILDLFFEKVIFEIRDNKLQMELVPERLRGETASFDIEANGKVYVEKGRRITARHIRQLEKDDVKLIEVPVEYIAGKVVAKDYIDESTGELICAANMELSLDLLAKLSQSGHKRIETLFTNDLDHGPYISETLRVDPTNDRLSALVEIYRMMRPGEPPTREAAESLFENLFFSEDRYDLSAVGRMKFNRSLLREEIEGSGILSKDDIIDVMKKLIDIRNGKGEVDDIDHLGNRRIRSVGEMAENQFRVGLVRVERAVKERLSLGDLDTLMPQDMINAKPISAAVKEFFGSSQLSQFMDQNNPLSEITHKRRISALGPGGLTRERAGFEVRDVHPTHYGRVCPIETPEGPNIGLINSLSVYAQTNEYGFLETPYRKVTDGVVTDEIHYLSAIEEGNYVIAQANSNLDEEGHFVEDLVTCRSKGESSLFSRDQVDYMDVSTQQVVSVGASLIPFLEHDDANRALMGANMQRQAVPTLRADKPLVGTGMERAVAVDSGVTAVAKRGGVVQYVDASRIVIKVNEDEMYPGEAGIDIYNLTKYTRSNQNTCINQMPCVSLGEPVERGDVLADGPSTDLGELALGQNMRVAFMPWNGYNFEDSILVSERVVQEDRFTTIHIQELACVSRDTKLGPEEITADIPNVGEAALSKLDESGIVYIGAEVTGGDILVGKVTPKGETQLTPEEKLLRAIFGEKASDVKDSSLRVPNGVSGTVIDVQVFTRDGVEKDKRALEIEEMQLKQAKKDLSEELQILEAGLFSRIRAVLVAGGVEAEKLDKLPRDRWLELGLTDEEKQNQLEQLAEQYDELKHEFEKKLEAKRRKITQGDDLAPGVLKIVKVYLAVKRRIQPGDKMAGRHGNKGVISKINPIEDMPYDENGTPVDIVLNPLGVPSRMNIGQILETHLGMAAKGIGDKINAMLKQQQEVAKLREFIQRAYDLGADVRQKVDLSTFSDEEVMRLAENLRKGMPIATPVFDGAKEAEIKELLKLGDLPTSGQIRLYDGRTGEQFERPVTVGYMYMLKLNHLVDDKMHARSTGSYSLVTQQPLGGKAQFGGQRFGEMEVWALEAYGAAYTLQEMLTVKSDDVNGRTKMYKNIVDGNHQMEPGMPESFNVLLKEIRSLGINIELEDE
T2 sequence (P0A8T7 whole entry, further chain): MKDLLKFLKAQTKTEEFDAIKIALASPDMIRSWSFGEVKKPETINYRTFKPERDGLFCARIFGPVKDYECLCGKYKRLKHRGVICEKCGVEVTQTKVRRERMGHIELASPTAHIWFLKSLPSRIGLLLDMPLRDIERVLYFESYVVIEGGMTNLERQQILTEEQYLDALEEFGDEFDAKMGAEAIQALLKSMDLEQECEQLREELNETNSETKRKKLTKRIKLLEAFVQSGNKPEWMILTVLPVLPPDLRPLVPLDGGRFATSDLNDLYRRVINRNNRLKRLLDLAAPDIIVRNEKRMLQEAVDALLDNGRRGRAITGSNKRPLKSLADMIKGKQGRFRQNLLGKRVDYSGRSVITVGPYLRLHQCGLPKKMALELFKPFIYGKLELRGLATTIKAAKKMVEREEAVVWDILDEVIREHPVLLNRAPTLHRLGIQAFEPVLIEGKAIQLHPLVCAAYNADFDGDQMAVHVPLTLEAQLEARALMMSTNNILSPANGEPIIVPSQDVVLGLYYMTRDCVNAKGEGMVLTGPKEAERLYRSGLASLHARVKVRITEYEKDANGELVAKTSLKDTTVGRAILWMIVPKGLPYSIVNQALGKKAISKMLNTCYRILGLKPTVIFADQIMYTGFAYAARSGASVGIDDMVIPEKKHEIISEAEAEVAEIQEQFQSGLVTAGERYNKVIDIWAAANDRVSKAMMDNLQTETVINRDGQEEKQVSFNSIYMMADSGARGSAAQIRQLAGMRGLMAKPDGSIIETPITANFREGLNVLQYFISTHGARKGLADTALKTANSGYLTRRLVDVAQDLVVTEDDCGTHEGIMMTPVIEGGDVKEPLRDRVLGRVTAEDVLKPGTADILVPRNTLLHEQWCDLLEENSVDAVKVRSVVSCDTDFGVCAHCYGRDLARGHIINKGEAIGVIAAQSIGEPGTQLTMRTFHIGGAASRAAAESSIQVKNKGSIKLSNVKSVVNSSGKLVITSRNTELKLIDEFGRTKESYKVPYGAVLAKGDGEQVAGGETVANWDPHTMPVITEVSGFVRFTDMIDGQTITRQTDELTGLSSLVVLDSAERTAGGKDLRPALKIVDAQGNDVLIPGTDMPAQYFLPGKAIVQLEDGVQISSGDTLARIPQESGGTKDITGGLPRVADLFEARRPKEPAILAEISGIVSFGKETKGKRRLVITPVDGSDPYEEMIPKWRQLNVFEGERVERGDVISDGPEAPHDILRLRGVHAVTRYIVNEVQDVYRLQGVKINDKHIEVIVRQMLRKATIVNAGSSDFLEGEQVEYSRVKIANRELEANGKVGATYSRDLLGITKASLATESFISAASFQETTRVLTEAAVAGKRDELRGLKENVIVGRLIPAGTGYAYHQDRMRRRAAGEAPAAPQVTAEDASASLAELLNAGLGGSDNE
T2 sequence (P0A800 whole entry, further chain): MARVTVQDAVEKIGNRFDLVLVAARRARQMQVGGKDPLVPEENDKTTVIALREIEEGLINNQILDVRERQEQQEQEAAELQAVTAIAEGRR
T2 sequence (P00579 whole entry, further chain): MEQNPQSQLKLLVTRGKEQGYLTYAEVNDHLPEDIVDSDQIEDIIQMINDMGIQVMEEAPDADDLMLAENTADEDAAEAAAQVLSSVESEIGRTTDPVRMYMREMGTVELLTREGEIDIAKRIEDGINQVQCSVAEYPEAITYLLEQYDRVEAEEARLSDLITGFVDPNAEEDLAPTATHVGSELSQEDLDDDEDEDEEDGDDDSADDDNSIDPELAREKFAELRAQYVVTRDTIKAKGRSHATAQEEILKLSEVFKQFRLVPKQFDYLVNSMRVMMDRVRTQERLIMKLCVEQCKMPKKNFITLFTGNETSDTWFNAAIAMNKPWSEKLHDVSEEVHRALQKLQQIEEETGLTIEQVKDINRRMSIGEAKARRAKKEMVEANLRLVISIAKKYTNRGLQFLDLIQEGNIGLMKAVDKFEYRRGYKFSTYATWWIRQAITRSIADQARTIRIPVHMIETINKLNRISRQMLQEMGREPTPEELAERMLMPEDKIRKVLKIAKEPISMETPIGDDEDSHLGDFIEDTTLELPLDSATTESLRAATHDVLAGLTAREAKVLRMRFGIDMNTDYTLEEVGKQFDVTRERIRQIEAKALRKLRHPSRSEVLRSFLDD

Compound | Growth in EG at concentration tested 1 μg/ml ([1]; EG minimal media, 37° C., 18 h) | Growth in EG at concentration tested 2 μg/ml ([1]; EG minimal media, 37° C., 18 h) | Growth in EG at concentration tested 4 μg/ml ([1]; EG minimal media, 37° C., 18 h) | MIC ([1]; Salmonella, 14028S, 18 h) | IC50 [2] | In vitro transcription assay result, 0.1 μM [3] | In vitro transcription assay result, 1 μM [3] | IVT [3] | Compound Solubility, 1 μM [4] | Compound Solubility, 10 μM [4] | Compound Solubility, 100 μM [4] | Compound Solubility, 1 mM [4] | Compound Solubility, 10 mM [4] | Compound Solubility, 16 mg/ml [4] | Growth in EG at concentration tested 8 μg/ml ([1]; EG minimal media, 37° C., 18 h) | other results
O=C(Nc1cc(Cl)cc(Cl)c1)c1nc[nH]n1 [Compound 14, N-(3,5-dichlorophenyl)-1H-1,2,4-triazole-3-carboxamide] | + | + | + | 8 µg/mL (≈ 31.1 µM) | 71 nM | no induction | no induction | 0.1 µM | water | water | water | DMSO | DMSO | DMSO |  | 
O=C(NCCc1c[nH]c2ccccc12)c1nc[nH]n1 [Compound 19, N-(2-(1H-indol-3-yl)ethyl)-1H-1,2,4-triazole-3-carboxamide] | + | + | + | 16 µg/mL (≈ 62.7 µM) | 75 nM | no induction | no induction | 0.1 µM | water | water | water | water | water | DMSO | + | 
O=C(NCCc1ccccc1)c1nc[nH]n1 [Compound 20, N-phenethyl-1H-1,2,4-triazole-3-carboxamide] | + | + | + | 8 µg/mL (≈ 37 µM) | 90 nM | no induction | no induction | 0.1 µM | water | water | water | water | water | DMSO |  | 
COc1ccc(NC(=O)c2nc[nH]n2)cc1OC [Compound 1, N-(3,4-dimethoxyphenyl)-1H-1,2,4-triazole-3-carboxamide] | + | + | + | 32 µg/mL (≈ 129 µM) |  | no change | good repression | 1 µM | water | water | water | water | water | DMSO | + | Growth in EG at concentration tested 16 μg/ml ([1]; 16 μg/ml, EG minimal media, 37° C., 18 h): +; MIC ([1]; read-out: Minimum inhibitory concentration): 32 µg/mL and 129 µM; Effect on rpsM in vitro transcription by the RNA polymerase itself [5]: did not affect; Lactate dehydrogenase (LDH) released from J774 cells [6]: did not change; Inhibition of DksA-dependent activation of hisG in vitro transcription [7]: completely inhibited; Intracellular expression of the SPI2 effector sifA [8]: repressed transcription; Intracellular expression of the SPI2 effector sifA ([8]; listed as 916): inhibits the intracellular expression; Antimicrobial activity against intracellular Salmonella growing in macrophages [9]: potent antimicrobial activity; Antimicrobial activity against intracellular Salmonella growing in macrophages ([9]; listed as 916): inhibits intracellular growth; Intracellular growth of ΔdksA Salmonella ([9]; ΔdksA Salmonella, off-target control): unaffected; Anti-Salmonella activity in disk diffusion assays [10]: greatest anti-Salmonella activity; Inhibition of DksA-mediated repression of rpsM in vitro transcription ([2]; 1 μM): completely inhibited; Activity against DksA-mediated repression of rpsM in vitro transcription ([2]; qualitative, listed as 916): excellent activity; also recorded: best in vitro efficacy; MIC [11]: 32 µg/mL; MIC ([11]; converted): 129 µM
CCCCNC(=O)c1nc[nH]n1 [Compound 12, N-butyl-1H-1,2,4-triazole-3-carboxamide] | + | + | + | 8 µg/mL (≈ 47.6 µM) | 73 nM | no induction | no induction | 0.1 µM | water | water | water | water | water | DMSO |  | 
